# Counter-ions that a name gives are not always drawn.
# Target: T1, SMO (Mus musculus, UniProt P56726)
# T1 construct: endogenous in cells; host or cells: C3H10T1/2 (ATCC #CCL-226)
# Test: Smoothened (SMO)/Sonic Hedgehog (SHh) Transient Transcriptional Activation Assay (Gli-luciferase reporter in C3H10T1/2 cells)
# Format: cell-based, murine
# Conditions: C3H 10T1/2, 2 uM test compound, SHh 250 ng/ml, 20 hrs, read-out: SMO % inhibition at 2 uM
# How it was run: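 C3H10T1/2 cells transiently transfected with a 10× murine Gli-responsive firefly luciferase reporter plus pEGFP, serum-starved 20 h in 0.5% calf serum, then treated with compounds (2 uM–2 nM final) and 250 ng/ml recombinant human SHh for 20 h at 37 °C. Read-out: Dual-Glo luminescence.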
# T1 sequence (P56726 33-793): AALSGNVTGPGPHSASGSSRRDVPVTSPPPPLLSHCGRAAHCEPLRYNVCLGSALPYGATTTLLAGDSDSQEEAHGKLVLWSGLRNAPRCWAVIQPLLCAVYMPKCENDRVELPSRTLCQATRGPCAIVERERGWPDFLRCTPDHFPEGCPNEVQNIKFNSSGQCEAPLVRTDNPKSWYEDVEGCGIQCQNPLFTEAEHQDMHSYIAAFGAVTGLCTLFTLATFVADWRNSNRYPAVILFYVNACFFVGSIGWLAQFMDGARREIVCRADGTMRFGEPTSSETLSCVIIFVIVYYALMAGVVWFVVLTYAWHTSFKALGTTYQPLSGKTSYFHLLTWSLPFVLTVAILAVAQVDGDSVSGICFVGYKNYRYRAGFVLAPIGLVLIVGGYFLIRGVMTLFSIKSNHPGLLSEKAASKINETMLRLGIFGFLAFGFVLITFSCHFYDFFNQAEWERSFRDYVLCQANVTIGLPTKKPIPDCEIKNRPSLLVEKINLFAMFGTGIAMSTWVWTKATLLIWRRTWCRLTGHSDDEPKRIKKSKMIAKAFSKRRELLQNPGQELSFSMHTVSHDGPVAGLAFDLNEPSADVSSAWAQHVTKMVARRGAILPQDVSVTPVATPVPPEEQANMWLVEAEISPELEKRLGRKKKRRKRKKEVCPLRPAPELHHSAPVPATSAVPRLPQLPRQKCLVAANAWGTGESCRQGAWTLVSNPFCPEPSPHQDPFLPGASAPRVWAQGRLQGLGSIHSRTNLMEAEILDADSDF
row,inhibition at 2 µM [%],SMILES
1,113,"COc1cc(OC)cc(C(=O)NC2CCCC(c3nc4ccc(C)cc4n3C)C2)c1 (centres unmarked) [Example 26, N-(3-(1,6-Dimethyl-1H-benzo[d]imidazol-2-yl)cyclohexyl]-3,5-dimethoxybenzamide]"
2,102,"COc1ccc2[nH]c(C3CCCC(NC(=O)c4ccc5c(c4)OCCO5)C3)nc2c1 (centres unmarked) [Example 29, N-(3-(5-Methoxy-1H-benzo[d]imidazol-2-yl)cyclohexyl]-2,3-dihydrobenzo[b][1,4]dioxine-6-carboxamide]"

# Same assay, conditions: C3H 10T1/2, 2 μM test compound, SHh 250 ng/ml, 20 hrs, read-out: SMO CELL % INHIBITION @ 2 μM
row,SMILES,inhibition at 2 µM [%]
1,"O=C(Nc1ccc(F)c(C(F)(F)F)c1)NC12CCCC(c3nc4ccccc4[nH]3)(C1)C2 [Example 255, 1-(5-(1H-benzo[d]imidaz-ol-2-yl)bicyclo[3.1.1]heptan-1-yl)-3-(4-fluoro-3-(trifluoromethyl)phenyl)urea HCL]",101
2,"CCc1c(C(=O)N[C@@H]2CCC[C@H](c3nc4ccccc4[nH]3)C2)[nH]c2ccccc12 [Example 214, N-[(1R,3S)-3-(1H-benzimidazol-2-yl)cyclohexyl]-3-ethyl-1H-indole-2-carboxamide triflouroacetate]",100
3,"[N-]=[N+]=Nc1ccc(C(=O)NC23CCCC(c4nc5ccccc5[nH]4)(C2)C3)cc1 [Example 277, 4-azido-N-[5-(1H-benzimidazol-2-yl)bicyclo[3.1.1]hept-1-yl]benzamide]",82.3
4,"O=C(NC1CCCC(c2nc3ccccc3[nH]2)C1)c1ccc(-n2ccnc2)cc1 (centres unmarked) [Example 90, N-[3-(1H-benzimidazol-2-yl)cyclohexyl]-4-(1H-imidazol-1-yl)benzamide triflouroacetate]",100
5,"O=C(N[C@@H]1CCC[C@H](c2nc3cc(C(F)(F)F)ccc3[nH]2)C1)c1ccc2c(c1)CNCC2 [Example 303, N-{(1R,3S)-3-[5-(trifluoromethyl)-1H-benzimidazol-2-yl]cyclohexyl}-1,2,3,4-tetrahydroiso-quinoline-7-carboxamide HCl]",111
6,"O=C(N[C@@H]1CCC[C@H](c2nc3ccccc3[nH]2)C1)c1ccc2c(c1)OCCO2 [Example 63, N-[(1R,3S)-3-(1H-benzimidazol-2-yl)cyclohexyl]-2,3-dihydro-1,4-benzodioxine-6-carboxamide HCl]",108
7,"CN1C(=O)CCc2cc(C(=O)N[C@@H]3CCC[C@H](c4nc5cc(Cl)ccc5[nH]4)C3)ccc21 [Example 305, N-[(1R,3S)-3-(5-chloro-1H-benzimidazol-2-yl)cyclohexyl]-1-methyl-2-oxo-1,2,3,4-tetrahydroquino-line-6-carboxamide (+)-tartrate]",81.2
8,"COc1cc(OC)cc(C(=O)N[C@@H]2CCCC(c3nc4cc(S(C)(=O)=O)ccc4[nH]3)C2)c1 (stereo in doubt) [Example 289, 3,5-dimethoxy-N-{(1R,3S)-3-[5-(methylsulfonyl)-1H-benzimidazol-2-yl]cyclohexyl} benzamide (+)-tartrate]",81
9,"O=C(CN1C[C@@H]2CC[C@H]1C2)NC1CCCC(c2nc3ccccc3[nH]2)C1 (stereo partly drawn) [Example 138, 2-[(1S,4R)-2-azabicyclo[2.2.1]hept-2-yl]-N-[3-(1H-benzimidazol-2-yl)cyclohexyl]-acetamide triflouroacetate]",100
10,"O=C(N[C@@H]1CCC[C@H](c2nc3ccccc3[nH]2)C1)C1COc2ccccc2C1 (stereo partly drawn) [Example 195, N-[(1R,3S)-3-(1H-benzimidazol-2-yl)cyclohexyl] chromane-3-carboxamide triflouroacetate]",81
11,"O=C(N[C@@H]1CCC[C@H](c2nc3ccccc3[nH]2)C1)C1COc2ccccc2O1 (stereo partly drawn) [Example 196, N-[(1R,3S)-3-(1H-benzimidazol-2-yl)cyclohexyl]-2,3-dihydro-1,4-benzodioxine-2-carboxamide triflouroacetate]",70
12,"Cc1c(C(=O)N[C@@H]2CCC[C@H](c3nc4ccccc4[nH]3)C2)oc2ccccc12 [Example 189, N-[(1R,3S)-3-(1H-benzimidazol-2-yl)cyclohexyl]-3-methyl-1-benzofuran-2-carboxamide triflouroacetate]",65

# Results, then the compound that gave them:
row,inhibition at 2 µM [%],SMILES
1,90.5,"Cc1cc2c(cc1C(=O)N[C@@H]1CCC[C@H](c3nc4ccccc4[nH]3)C1)OCCO2 [Example 307, N-[(1R,3S)-3-(1H-benzimidazol-2-yl)cyclohexyl]-7-methyl-2,3-dihydro-1,4-benzodioxine-6-carboxamide]"
2,109,"COc1cc(OC)cc(C(=O)N[C@@H]2CCC[C@H](c3nc4ccccc4[nH]3)C2)c1 [Example 166, N-[(1R,3S)-3-(1H-benzimidazol-2-yl)cyclohexyl]-3,5-dimethoxybenz-amide HCl]"
3,101,"COc1ccc(C(=O)NC2CCCC(c3nc4ccccc4[nH]3)C2)cc1Cl (centres unmarked) [Example 59, N-[3-(1H-benzimidazol-2-yl)cyclohexyl]-3-chloro-4-methoxybenz-amide HCl]"
4,85,"Cn1c(=O)[nH]c2cc(C(=O)N[C@@H]3CCC[C@H](c4nc5ccccc5[nH]4)C3)ccc21 [Example 217, N-[(1R,3S)-3-(1H-benzimidazol-2-yl)cyclohexyl]-1-methyl-2-oxo-2,3-dihydro-1H-benzimidazole-5-carboxamide triflouroacetate]"
5,85,"COc1cccc2c1OCC(C(=O)NC1CCCC(c3nc4ccccc4[nH]3)C1)C2 (centres unmarked) [Example 133, N-[3-(1H-benzimidazol-2-yl)cyclohexyl]-8-methoxychrom-ane-3-carboxamide triflouroacetate]"
6,34,"O=C(N[C@@H]1CCC[C@H](c2nc3ccccc3[nH]2)C1)c1ccc2snnc2c1 [Example 202, N-[(1R,3S)-3-(1H-benzimidazol-2-yl)cyclohexyl]-1,2,3-benzothiadiazole-5-carboxamide triflouroacetate]"
7,74,"COc1ccc2cc(C(=O)N[C@H]3CCC[C@H](c4nc5ccccc5[nH]4)C3)n(C)c2c1 [Example 248, N-(3-(1H-benzo[d]imidaz-ol-2-yl)cyclohexyl)-6-methoxy-1-methyl-1H-indole-2-carboxamide HCl]"
8,89,"COc1ccc2cc(C(=O)N[C@@H]3CCC[C@H](c4nc5ccccc5[nH]4)C3)[nH]c2c1 [Example 211, N-[(1R,3S)-3-(1H-benzimidazol-2-yl)cyclohexyl]-6-methoxy-1H-indole-2-carboxamide triflouroacetate]"
9,106,"O=C(N[C@H]1CCC[C@@H](c2nc3ccc(Cl)cc3[nH]2)C1)c1ccc2c(c1)OCCO2 [Example 179, N-[(1S,3R)-3-(6-chloro-1H-benzimidazol-2-yl)cyclohexyl]-2,3-dihydro-1,4-benzodioxine-6-carboxamide HCl]"
10,106,"Cc1ccc2nc([C@H]3CCC[C@@H](NC(=O)c4ccc5c(c4)OCCO5)C3)[nH]c2c1 [Example 168, N-[(1R,3S)-3-(6-methyl-1H-benzimidazol-2-yl)cyclohexyl]-2,3-dihydro-1,4-benzodioxine-6-carboxamide HCl]"
11,93,"COCOc1ccc(C(=O)NC2CCCC(c3nc4ccccc4[nH]3)C2)cc1 (centres unmarked) [Example 96, N-[3-(1H-benzimidazol-2-yl)cyclohexyl]-4-(methoxymeth-oxy)benzamide triflouroacetate]"
12,52,"COc1cc(C(=O)N[C@@H]2CCC[C@H](c3nc4ccccc4[nH]3)C2)cc2c1OCO2 [Example 222, N-[(1R,3S)-3-(1H-benzimidazol-2-yl)cyclohexyl]-7-methoxy-1,3-benzodioxole-5-carboxamide triflouroacetate]"

# From patent US20100029615A1, “BENZIMIDAZOLE DERIVATIVES” (priority 2006, published 2010)
